From patent publication US10004732B2 (Novartis AG, priority 2014, dated 2018)
Structures can show the parent of a compound that is named as a salt. Where two headings read alike, the source gives them in different places.

Columns and labels:
[1] = Microsomal clearance assay (M)
Protocol: The experiments were performed in 96-well glass plates at 37° C. on an automated Tecan EVO platform. Test compounds at a concentration of 10 mM in pure DMSO were diluted 1:1000 in water to 10 μM. […] Reactions were initiated by the addition of 150 μL of a cofactor solution containing 2 mM NADPH.

[2] = target: Vps34 (Homo sapiens, UniProt Q8NEB9); experiment: Kinase Glo Luminescent Kinase Assay (Kglo), assay C; assay type: biochemical; conditions: read-out: Assay C VPS34 IC50
[3] = target: PI 4-kinase beta (Homo sapiens, UniProt Q9UBF8); experiment: Kinase Glo Luminescent Kinase Assay (Kglo), assay D; assay type: biochemical; conditions: read-out: Assay D PI4Kβ IC50
[4] = target: PI 3-kinase gamma (Homo sapiens, UniProt P48736); experiment: TR-FRET Adapta assay, assay E; assay type: biochemical; conditions: read-out: Assay E PI3Kγ IC50
[5] = target: mTOR (Homo sapiens, UniProt P42345); experiment: Lanthascreen kinase binding assay, assay G; conditions: read-out: Assay G mTOR IC50
Protocol: Lanthascreen™ Kinase Binding Assay for mTOR (G)
Binding of an inhibitor to the kinase competes for binding with the tracer, resulting in a loss of FRET.
50 nL of compound dilutions were dispensed onto white 384-well small volume polystyrene plate.

[6] = target: PI 3-kinase beta (Homo sapiens, UniProt P42338); experiment: Kinase Glo Luminescent Kinase Assay (Kglo), assay B; assay type: biochemical; conditions: read-out: Assay B PI3Kβ IC50
[7] = target: PI 3-kinase delta (Homo sapiens, UniProt O00329); experiment: TR-FRET Adapta assay, assay F
[8] = target: PI 3-kinase alpha (Homo sapiens, UniProt P42336); experiment: Kinase Glo Luminescent Kinase Assay (Kglo), assay A; assay type: biochemical; conditions: read-out: Assay A PI3Kα IC50
[9] = rat liver microsomes, intrinsic clearance

Chain of Vps34 (Q8NEB9 whole entry, species assumed): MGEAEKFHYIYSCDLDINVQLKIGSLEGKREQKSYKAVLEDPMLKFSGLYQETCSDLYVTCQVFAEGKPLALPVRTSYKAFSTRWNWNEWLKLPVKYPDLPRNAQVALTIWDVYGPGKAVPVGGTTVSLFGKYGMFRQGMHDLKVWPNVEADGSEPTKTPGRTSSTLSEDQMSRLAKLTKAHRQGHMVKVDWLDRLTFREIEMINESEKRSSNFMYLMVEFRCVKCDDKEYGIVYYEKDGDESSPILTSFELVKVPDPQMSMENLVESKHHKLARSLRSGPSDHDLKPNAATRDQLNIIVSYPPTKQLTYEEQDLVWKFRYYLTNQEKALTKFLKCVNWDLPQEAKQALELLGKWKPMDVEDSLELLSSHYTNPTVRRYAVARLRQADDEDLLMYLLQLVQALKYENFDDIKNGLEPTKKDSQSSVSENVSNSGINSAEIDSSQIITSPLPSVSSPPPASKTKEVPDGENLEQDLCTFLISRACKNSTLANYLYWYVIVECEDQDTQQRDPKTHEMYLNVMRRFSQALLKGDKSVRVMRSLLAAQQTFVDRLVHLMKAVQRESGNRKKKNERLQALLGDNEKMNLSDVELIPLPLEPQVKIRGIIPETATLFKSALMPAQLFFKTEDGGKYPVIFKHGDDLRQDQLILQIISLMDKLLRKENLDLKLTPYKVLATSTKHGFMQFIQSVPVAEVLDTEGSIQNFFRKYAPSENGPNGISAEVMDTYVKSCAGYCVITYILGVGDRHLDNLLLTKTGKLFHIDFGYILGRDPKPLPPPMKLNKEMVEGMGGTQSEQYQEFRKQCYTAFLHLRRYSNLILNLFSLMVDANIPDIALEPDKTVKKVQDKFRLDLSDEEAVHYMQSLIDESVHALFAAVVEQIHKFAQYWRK
Chain of PI 4-kinase beta (Q9UBF8 whole entry): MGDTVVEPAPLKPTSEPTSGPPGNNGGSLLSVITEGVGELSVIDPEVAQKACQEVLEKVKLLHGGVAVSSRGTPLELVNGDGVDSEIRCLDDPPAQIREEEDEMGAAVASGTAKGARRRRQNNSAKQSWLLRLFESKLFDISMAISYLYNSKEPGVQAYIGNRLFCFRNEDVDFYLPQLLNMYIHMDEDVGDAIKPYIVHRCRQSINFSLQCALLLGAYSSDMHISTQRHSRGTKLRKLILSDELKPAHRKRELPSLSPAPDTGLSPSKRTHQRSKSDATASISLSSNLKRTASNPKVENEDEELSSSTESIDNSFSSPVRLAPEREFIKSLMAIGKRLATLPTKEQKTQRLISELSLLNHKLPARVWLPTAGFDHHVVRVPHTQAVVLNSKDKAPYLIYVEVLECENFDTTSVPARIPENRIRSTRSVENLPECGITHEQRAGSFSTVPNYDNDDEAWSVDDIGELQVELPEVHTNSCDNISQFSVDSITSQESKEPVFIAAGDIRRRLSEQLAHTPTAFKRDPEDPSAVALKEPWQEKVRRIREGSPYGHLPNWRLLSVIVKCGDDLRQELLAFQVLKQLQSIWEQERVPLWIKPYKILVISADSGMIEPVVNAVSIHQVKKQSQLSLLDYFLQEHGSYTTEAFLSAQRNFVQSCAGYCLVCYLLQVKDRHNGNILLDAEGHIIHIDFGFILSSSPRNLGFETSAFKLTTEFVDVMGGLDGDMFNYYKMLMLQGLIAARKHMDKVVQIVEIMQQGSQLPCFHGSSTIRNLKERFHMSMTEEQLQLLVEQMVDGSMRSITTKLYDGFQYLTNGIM
Chain of PI 3-kinase delta (O00329 whole entry): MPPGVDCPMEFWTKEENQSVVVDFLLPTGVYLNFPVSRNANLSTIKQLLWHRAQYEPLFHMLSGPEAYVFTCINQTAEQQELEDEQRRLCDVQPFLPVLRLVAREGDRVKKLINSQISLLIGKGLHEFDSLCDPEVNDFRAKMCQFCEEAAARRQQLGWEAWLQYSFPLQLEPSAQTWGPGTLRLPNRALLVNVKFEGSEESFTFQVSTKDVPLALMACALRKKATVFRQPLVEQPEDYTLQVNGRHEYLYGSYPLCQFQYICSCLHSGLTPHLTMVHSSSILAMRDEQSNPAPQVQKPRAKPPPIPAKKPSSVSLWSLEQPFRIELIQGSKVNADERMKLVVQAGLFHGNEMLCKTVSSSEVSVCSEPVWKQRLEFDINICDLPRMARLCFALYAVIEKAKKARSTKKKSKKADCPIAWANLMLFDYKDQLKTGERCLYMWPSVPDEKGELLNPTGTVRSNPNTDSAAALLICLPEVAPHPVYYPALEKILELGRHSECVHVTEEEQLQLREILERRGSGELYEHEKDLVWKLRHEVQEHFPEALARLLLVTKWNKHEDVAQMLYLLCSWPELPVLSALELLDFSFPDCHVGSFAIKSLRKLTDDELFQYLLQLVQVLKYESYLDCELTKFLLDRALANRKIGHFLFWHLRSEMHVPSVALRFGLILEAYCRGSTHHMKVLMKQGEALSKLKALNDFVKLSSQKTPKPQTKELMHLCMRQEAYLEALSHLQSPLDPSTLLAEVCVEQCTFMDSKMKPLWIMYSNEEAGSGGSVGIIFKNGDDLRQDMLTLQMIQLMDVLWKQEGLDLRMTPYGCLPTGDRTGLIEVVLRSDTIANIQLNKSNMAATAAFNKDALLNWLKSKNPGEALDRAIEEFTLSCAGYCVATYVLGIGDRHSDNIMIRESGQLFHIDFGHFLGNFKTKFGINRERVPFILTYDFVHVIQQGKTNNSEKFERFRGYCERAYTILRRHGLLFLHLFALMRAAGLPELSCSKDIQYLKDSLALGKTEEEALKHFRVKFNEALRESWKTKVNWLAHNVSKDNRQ
Chain of PI 3-kinase delta (P27986 461-568 partner): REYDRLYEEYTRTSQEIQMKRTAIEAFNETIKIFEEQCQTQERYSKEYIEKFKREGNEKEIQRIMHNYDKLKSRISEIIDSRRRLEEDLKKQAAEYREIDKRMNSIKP
Chain of PI 3-kinase alpha (P42336 whole entry): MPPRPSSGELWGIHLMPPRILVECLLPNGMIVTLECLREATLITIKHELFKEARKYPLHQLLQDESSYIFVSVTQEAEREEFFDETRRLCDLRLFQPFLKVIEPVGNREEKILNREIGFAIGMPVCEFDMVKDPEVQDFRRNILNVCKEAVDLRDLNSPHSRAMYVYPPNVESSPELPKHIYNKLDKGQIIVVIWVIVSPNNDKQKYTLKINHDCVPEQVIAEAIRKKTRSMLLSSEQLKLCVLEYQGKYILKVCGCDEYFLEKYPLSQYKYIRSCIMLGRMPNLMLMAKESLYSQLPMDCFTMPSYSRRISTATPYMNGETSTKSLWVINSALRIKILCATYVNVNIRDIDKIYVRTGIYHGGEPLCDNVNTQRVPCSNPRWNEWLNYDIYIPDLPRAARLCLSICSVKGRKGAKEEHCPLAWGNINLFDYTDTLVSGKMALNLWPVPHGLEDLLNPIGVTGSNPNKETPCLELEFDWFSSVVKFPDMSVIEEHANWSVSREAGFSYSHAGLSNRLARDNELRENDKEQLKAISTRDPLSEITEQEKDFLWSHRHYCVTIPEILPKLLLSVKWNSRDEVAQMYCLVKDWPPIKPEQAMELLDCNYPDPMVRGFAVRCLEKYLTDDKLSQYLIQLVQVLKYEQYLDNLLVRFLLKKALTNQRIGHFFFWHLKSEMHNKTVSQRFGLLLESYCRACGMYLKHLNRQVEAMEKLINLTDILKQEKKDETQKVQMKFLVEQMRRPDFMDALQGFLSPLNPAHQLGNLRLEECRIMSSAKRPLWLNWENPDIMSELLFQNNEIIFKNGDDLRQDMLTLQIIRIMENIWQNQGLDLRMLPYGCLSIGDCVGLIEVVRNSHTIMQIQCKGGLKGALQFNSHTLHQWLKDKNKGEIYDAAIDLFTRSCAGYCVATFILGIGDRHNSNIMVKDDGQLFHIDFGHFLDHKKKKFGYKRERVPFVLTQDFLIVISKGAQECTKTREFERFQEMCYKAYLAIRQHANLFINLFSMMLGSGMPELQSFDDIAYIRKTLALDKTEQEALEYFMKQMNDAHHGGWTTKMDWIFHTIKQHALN
Chain of PI 3-kinase gamma (P48736 whole entry): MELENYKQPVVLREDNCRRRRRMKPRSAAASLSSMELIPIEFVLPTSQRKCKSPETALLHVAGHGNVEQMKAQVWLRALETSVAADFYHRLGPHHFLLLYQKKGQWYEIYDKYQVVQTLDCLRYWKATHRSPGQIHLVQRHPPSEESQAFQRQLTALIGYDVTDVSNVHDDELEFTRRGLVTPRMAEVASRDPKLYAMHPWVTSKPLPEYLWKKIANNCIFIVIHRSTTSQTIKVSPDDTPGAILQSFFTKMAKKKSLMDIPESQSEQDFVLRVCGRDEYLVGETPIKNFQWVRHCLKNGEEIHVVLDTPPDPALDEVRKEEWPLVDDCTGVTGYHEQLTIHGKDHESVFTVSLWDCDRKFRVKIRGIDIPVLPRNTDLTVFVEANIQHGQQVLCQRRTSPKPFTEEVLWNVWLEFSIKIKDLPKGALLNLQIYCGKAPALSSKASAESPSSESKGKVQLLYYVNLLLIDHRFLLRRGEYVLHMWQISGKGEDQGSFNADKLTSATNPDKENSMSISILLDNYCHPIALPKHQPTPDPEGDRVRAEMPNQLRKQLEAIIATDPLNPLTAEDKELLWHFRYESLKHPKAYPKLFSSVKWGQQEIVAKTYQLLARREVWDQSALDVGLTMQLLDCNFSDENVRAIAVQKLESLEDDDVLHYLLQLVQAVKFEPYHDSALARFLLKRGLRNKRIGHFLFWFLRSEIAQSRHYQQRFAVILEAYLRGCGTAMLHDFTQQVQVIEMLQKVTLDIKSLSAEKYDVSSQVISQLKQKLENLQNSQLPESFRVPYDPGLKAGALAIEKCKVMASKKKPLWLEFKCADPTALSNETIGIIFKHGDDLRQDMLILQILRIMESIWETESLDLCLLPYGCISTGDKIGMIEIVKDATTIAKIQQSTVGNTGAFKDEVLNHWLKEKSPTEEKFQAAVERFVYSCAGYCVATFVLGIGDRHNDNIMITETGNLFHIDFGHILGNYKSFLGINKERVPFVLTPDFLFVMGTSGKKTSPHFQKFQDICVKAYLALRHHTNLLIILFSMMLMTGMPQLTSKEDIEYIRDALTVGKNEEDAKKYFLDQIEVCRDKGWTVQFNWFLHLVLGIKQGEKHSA

Row | Compound | Assay M RLM CI(int) [1, 9] [µL/min/mg] | IC50 [2] [nM] | IC50 [3] [nM] | IC50 [4] [nM] | IC50 [5] [nM] | IC50 [6] [nM] | IC50 ([7]; read-out: Assay F PI3Kδ IC50) [nM] | IC50 [8] [nM] | IC50 [7] [nM] | Assay M RLM CI(int) ([1]; intrinsic clearance in rat liver microsomes) [µL/min/mg]
1 | COCCNS(=O)(=O)c1cc(-c2cnc(N)c(C(=O)c3cccnc3)n2)c(F)cc1F [(vii), reference compound] | 283 |  |  |  |  |  |  |  |  | 
2 | Cc1ccc(S(=O)(=O)N2CCOCC2)cc1-c1cnc(N)c(C(=O)c2cccnc2)n1 [(ix), reference compound] | 267 |  |  |  |  |  |  |  |  | 
3 | CN1CCN(S(=O)(=O)c2cccc(-c3cnc(N)c(C(=O)c4cccnc4)c3)c2)CC1 [(ii), reference compound] | 233 |  |  |  |  |  |  |  |  | 
4 | COCCNS(=O)(=O)c1cc(-c2cnc(N)c(C(=O)c3cccnc3)n2)ccc1Cl [(vi), reference compound] | 630 |  |  |  |  |  |  |  |  | 
5 | Cc1ccc(S(=O)(=O)N2CCOCC2)cc1-c1cnc(N)c(C(=O)c2cccnc2)c1 [(i), reference compound] | 47 |  |  |  |  |  |  |  |  | 
6 | Cc1nc(N)ncc1-c1ccc(Cl)c(S(=O)(=O)NCCO)c1 [(xii), reference compound] | 9 |  |  |  |  |  |  |  |  | 
7 | CNC(=O)c1nc(-c2ccc(Cl)c(S(=O)(=O)Nc3cccc(F)c3C)c2)cnc1N [(xi), reference compound] | 271 |  |  |  |  |  |  |  |  | 
8 | Cc1ncc(-c2nc(-c3cc(S(=O)(=O)N[C@@H]4CCOC4)ccc3C)cnc2N)s1 [Example 45.7b, (R)-3-(5-Amino-6-(2-methylthiazol-5-yl)pyrazin-2-yl)-4-methyl-N-(tetrahydrofuran-3-yl)benzenesulfonamide or (5)-3-(5-Amino-6-(2-methylthiazol-5-yl)pyrazin-2-yl)-4-methyl-N-(tetrahydrofuran-3-yl)benzenesulfonamide] |  |  |  |  |  |  |  |  |  | 135
9 | Nc1ncc(-c2ccc(Cl)c(S(=O)(=O)N[C@H]3CC[C@H](O)CC3)c2)nc1C(=O)c1cccnc1 [(v), reference compound] | 173 |  |  |  |  |  |  |  |  | 
10 | CC(C)(C)c1ccc(C(=O)c2cc(-c3cccc(S(=O)(=O)NC4CC4)c3)cnc2N)cc1 [(iii), reference compound] | 219 |  |  |  |  |  |  |  |  | 
11 | COCCNS(=O)(=O)c1cccc(-c2cnc(N)c(C(=O)c3cccnc3)n2)c1 [(iv), reference compound] | 465 |  |  |  |  |  |  |  |  | 

The next lines start with results.

Row | Assay M RLM CI(int) [1, 9] [µL/min/mg] | IC50 [2] [nM] | IC50 [3] [nM] | IC50 [4] [nM] | IC50 [5] [nM] | IC50 [6] [nM] | IC50 ([7]; read-out: Assay F PI3Kδ IC50) [nM] | IC50 [8] [nM] | IC50 [7] [nM] | Compound | Assay M RLM CI(int) ([1]; intrinsic clearance in rat liver microsomes) [µL/min/mg]
12 |  | > 10000 | 4200 | 270 | > 10000 | 3500 | 6600 | 1700 |  | Cc1ccc(S(=O)(=O)N[C@@H](C)CO)cc1-c1cnc(N)c(-n2cncn2)n1 [Example 127.41] | 
13 |  | > 10000 | 6100 | 120 | 3700 | 2200 | 1400 | 730 |  | Cc1ccc(S(=O)(=O)NC(C)C(C)C)cc1-c1cnc(N)c(-n2cncn2)n1 (stereo not drawn) [Example 127.44] | 
14 |  | > 9100 | > 9100 | 508 | 4820 | > 9100 | 2080 | 1480 |  | Cc1ccc(S(=O)(=O)NCCC(C)(C)O)cc1-c1cnc(N)c(-c2cncnc2)n1 [Example 119.20] | 
15 |  | > 9100 | > 9100 | 380 | > 9100 | 3300 | 1900 | 2800 |  | CCN(CC)CCCNS(=O)(=O)c1ccc(C)c(-c2cnc(N)c(-c3ccnc(C)c3)n2)c1 [Example 129.23, 3-(5-amino-6-(2-methylpyridin-4-yl)pyrazin-2-yl)-N-(3-(diethylamino)propyl)-4-methylbenzenesulfonamide] | 
16 |  | > 9100 | > 9100 | 150 | > 9100 | 6600 | 1700 | 2000 |  | Cc1cc(-c2nc(-c3cc(S(=O)(=O)NC[C@H]4CCC[C@@H](CN)C4)ccc3C)cnc2N)ccn1 [Example 129.42, 3-(5-amino-6-(2-methylpyridin-4-yl)pyrazin-2-yl)-N-(((1S,3R)-3-(aminomethyl)cyclohexyl)methyl)-4-methylbenzenesulfonamide] | 
17 |  | > 9100 | 4710 | 13 | 2880 | 1500 | 110 | 170 |  | Cc1nc(-c2nc(-c3cc(S(=O)(=O)NCCC(C)(C)O)ccc3C)cnc2N)cs1 [Example 119.30] | 
18 |  | > 9100 | > 9100 | 760 | > 9100 | > 9100 | 2100 | 9000 |  | Cc1cc(-c2nc(-c3cc(S(=O)(=O)NCCN4CCCC4)ccc3C)cnc2N)ccn1 [Example 129.27, 3-(5-amino-6-(2-methylpyridin-4-yl)pyrazin-2-yl)-4-methyl-N-(2-(pyrrolidin-1-yl)ethyl)benzenesulfonamide] | 
19 |  | > 9100 | > 9100 | 30 | 6400 | 6470 | 100 | 120 |  | Cc1ccc(S(=O)(=O)NCCC(C)(C)O)cc1-c1cnc(N)c(-c2ccnc(F)c2)n1 [Example 119.10] | 
20 |  | > 10000 | 4000 | 13 | 7000 | 460 | 320 | 100 |  | Cc1ccc(S(=O)(=O)NCC2(CO)CCC2)cc1-c1cnc(N)c(-n2cncn2)n1 [Example 127.49] | 
21 |  | > 10000 | 3300 | 140 | > 10000 | 730 |  | 960 | 2400 | Cc1ccc(S(=O)(=O)N[C@@H]2CNC[C@H]2O)cc1-c1cnc(N)c(-n2cncn2)n1 [Example 127.60, 3-(5-amino-6-(1H-1,2,4-triazol-1-yl)pyrazin-2-yl)-N-((3R,4R)-4-hydroxypyrrolidin-3-yl)-4-methylbenzenesulfonamide trifluoroacetic acid salt] | 
22 |  | > 9100 | > 9100 | 270 | > 9100 | > 9100 | 2800 | 740 |  | CC[C@@H](CO)NS(=O)(=O)c1ccc(C)c(-c2cnc(N)c(-c3ccnc(C)c3)n2)c1 [Example 129.6, (S)-3-(5-amino-6-(2-methylpyridin-4-yl)pyrazin-2-yl)-N-(1-hydroxybutan-2-yl)-4-methylbenzenesulfonamide] | 
23 |  | > 9100 | > 9100 | 820 | > 9100 | 2700 |  | 1600 | 4500 | Cc1cc(-c2nc(-c3cc(S(=O)(=O)N[C@H]4CCC[C@@H]4N)ccc3C)cnc2N)ccn1 [Example 129.38, 3-(5-amino-6-(2-methylpyridin-4-yl)pyrazin-2-yl)-N-((1S,2S)-2-aminocyclopentyl)-4-methylbenzenesulfonamide] | 
24 |  | > 9100 | > 9100 | 69 | 5000 | > 9100 | 430 | 190 |  | Cc1cc(-c2nc(-c3cc(S(=O)(=O)NCC4(O)CCCCC4)ccc3C)cnc2N)ccn1 [Example 129.4, 3-(5-amino-6-(2-methylpyridin-4-yl)pyrazin-2-yl)-N-((1-hydroxycyclohexyl)methyl)-4-methylbenzenesulfonamide] | 
25 |  | > 10000 | > 10000 | 1600 | > 10000 | > 10000 | 3000 | 2300 |  | Cc1ccc(S(=O)(=O)NCCCCCO)cc1-c1cnc(N)c(-n2cncn2)n1 [Example 127.9] | 
26 |  | > 9100 | > 9100 | 1100 | > 9100 | 6400 | 4000 | 670 |  | Cc1cc(-c2nc(-c3cc(S(=O)(=O)N4CC[C@@H](N)C4)ccc3C)cnc2N)ccn1 [Example 129.40, (R)-5-(5-(3-aminopyrrolidin-1-ylsulfonyl)-2-methylphenyl)-3-(2-methylpyridin-4-yl)pyrazin-2-amine] | 
27 |  | > 10000 | 7100 | 800 | > 10000 | 5900 | > 10000 | 1700 |  | Cc1ccc(S(=O)(=O)NC(C)CO)cc1-c1cnc(N)c(-n2cncn2)n1 (stereo not drawn) [Example 127.42] | 
28 |  | > 9100 | > 9100 | 280 | > 9100 | > 9100 | 7500 | 1500 |  | Cc1cc(-c2nc(-c3cc(S(=O)(=O)NC4CCN(C)CC4)ccc3C)cnc2N)ccn1 [Example 129.22, 3-(5-amino-6-(2-methylpyridin-4-yl)pyrazin-2-yl)-4-methyl-N-(1-methylpiperidin-4-yl)benzenesulfonamide] | 
29 |  | > 10000 | 5300 | 130 | > 10000 | 5100 | 1700 | 970 |  | Cc1ccc(S(=O)(=O)N[C@@H]2CCOC2)cc1-c1cnc(N)c(-n2cncn2)n1 [Example 127.20] | 
30 |  | > 9100 | > 9100 | 66 | > 9100 | > 9100 | 2000 | 630 |  | Cc1cc(-c2nc(-c3cc(S(=O)(=O)NCC4CCCCO4)ccc3C)cnc2N)ccn1 (stereo not drawn) [Example 129.16, 3-(5-amino-6-(2-methylpyridin-4-yl)pyrazin-2-yl)-4-methyl-N-((tetrahydro-2H-pyran-2-yl)methyl)benzenesulfonamide] | 
